The text below walks through data of patent US8461328B2, “Tricyclic heterocyclic compounds, compositions and methods of use thereof” (Genentech, Inc., priority 2010, dated 2013).

Structures can show the parent of a compound that is named as a salt.

Type in all cases: biochemical
Assay [1] deals with T1, JAK2 (Homo sapiens, UniProt O60674).
T1 construct: made in house; host or cells: SF9 insect cells (baculovirus)
Nature of the assay: JAK2 inhibition (Table 4). The following applies: read-out: JAK2 Ki.

The target of assay [2] is T2, JAK1 (Homo sapiens, UniProt P23458).
T2 construct: made in house; host or cells: SF9 insect cells (baculovirus)
Nature of the assay: JAK1 inhibition (Table 4). The following applies: read-out: JAK1 Ki.

Assay [3] has as its target T3, JAK3 (Homo sapiens, UniProt P52333).
T3 construct: made in house; host or cells: SF9 insect cells (baculovirus)
Nature of the assay: JAK3 inhibition (Table 4). To be noted: read-out: JAK3 Ki.

The target in assay [4] is T4, TYK2 (Homo sapiens, UniProt P29597).
T4 construct: made in house; host or cells: SF9 insect cells (baculovirus)
T4 sequence (P29597 873-1187): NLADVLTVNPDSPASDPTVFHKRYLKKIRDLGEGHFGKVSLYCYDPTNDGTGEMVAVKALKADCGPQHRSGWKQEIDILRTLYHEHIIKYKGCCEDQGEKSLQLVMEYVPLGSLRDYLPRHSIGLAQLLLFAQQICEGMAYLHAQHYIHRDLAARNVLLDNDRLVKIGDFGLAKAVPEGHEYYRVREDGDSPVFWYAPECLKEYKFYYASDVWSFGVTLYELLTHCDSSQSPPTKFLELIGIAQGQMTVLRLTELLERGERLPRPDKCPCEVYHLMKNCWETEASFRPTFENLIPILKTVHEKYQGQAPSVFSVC
The experiment in a line: TYK2 inhibition (Table 4).

T2 sequence (P23458 852-1154): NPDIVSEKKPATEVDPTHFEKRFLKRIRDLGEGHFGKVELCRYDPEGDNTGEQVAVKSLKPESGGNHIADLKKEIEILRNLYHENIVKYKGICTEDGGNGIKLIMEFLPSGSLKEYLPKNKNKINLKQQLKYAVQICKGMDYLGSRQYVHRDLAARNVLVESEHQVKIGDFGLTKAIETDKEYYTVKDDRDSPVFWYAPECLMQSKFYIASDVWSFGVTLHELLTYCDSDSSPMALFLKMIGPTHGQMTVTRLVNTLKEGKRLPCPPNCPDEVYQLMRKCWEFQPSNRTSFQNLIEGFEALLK
T1 sequence (O60674 812-1132): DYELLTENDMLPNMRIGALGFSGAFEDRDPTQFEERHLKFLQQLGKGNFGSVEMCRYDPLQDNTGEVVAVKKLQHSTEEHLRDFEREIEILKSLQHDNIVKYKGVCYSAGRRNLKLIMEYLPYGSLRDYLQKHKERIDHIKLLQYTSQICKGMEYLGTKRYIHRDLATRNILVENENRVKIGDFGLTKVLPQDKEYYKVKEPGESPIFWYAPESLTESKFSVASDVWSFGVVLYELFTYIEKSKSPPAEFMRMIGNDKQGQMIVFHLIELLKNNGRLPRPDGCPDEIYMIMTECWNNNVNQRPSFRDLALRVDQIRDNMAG
T3 sequence (P52333 783-1124): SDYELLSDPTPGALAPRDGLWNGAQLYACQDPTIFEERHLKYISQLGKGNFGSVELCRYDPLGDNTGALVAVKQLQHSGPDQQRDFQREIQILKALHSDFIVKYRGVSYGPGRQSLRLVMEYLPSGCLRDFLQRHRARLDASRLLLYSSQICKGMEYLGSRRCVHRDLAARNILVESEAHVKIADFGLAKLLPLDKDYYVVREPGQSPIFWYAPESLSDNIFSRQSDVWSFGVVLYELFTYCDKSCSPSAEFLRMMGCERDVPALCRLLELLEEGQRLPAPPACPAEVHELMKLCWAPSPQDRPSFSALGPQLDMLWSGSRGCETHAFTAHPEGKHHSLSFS

One may read the Ki as a measure of affinity in units of concentration, obtained from inhibition or displacement. In the case of `COCCN1CCC(n2c(C(C)O)nc3cnc4[nH]ccc4c32)CC1` (racemic) [Example 539, 1-{1-[1-(2-Methoxy-ethyl)-piperidin-4-yl]-1,6-dihydro-1,3,5,6-tetraaza-as-indacen-2-yl}-ethanol], the Ki in assay [1] was 0.194 µM; in assay [2] it was 0.0127 µM; in assay [3], 0.0974 µM; in assay [4], 0.352 µM.
As to `Cc1nc2cnc3[nH]ccc3c2n1[C@H]1CC[C@H](N2CCC(O)C2)CC1` (mixture of isomers) [Example 597, Racemic trans 1-[4-(2-Methyl-6H-1,2,3,5,6-tetraaza-as-indacen-1-yl)-cyclohexyl]-pyrrolidin-3-ol], the Ki in assay [1] was 0.126 µM; in assay [2] it was 0.0308 µM; in assay [3] it was 0.823 µM; in assay [4] it was 0.497 µM.
In the case of `COCCNC1CCC(n2nnc3cnc4[nH]ccc4c32)C1` (racemic) [Example 618, Racemic trans (2-methoxy-ethyl)-[3-(6H-1,2,3,5,6-pentaaza-as-indacen-1-yl)-cyclopentyl]-amine hydrochloride], the Ki is 0.446 µM in assay [1], 0.138 µM in assay [2], 0.942 µM in assay [3] and 1.44 µM in assay [4].
For the molecule `O=C(NC1CCC(n2nnc3cnc4[nH]ccc4c32)C1)OCC(F)(F)F` (racemic) [Example 620, Racemic trans [3-(6H-1,2,3,5,6-Pentaaza-as-indacen-1-yl)-cyclopentyl]-carbamic acid 2,2,2-trifluoro-ethyl ester], the Ki turned out to be 0.00815 µM in assay [1], 0.00164 µM in assay [2], 0.0205 µM in assay [3] and 0.0914 µM in assay [4].
`COC(=O)NC1CCC(n2nnc3cnc4[nH]ccc4c32)C1` (racemic) [Example 621, Racemic trans [3-(6H-1,2,3,5,6-Pentaaza-as-indacen-1-yl)-cyclopentyl]-carbamic acid methyl ester]: the Ki in assay [1] amounted to 0.0232 µM; in assay [2], 0.00878 µM; in assay [3], 0.148 µM; in assay [4] it was 0.124 µM.
On the same counts, the results for `CN(CC(F)(F)F)C(=O)NC1CCC(n2nnc3cnc4[nH]ccc4c32)C1` (racemic) [Example 622, Racemic trans 1-Methyl-3-[3-(6H-1,2,3,5,6-pentaaza-as-indacen-1-yl)-cyclopentyl]-1-(2,2,2-trifluoro-ethyl)-urea] are 0.0124 µM, 0.009 µM, 0.0195 µM and 0.233 µM.
`Cc1nc2cnc3[nH]ccc3c2n1C1CCC(NCC(F)(F)F)C1` (racemic) [Example 626, Racemic trans [3-(2-Methyl-6H-1,2,3,5,6-tetraaza-as-indacen-1-yl)-cyclopentyl]-(2,2,2-trifluoro-ethyl)-amine]: the Ki came out at 0.0064 µM in assay [1], 0.00204 µM in assay [2], 0.0337 µM in assay [3] and 0.00938 µM in assay [4].
With `Cc1nc2cnc3[nH]ccc3c2n1C1CCC(NCCC#N)C1` (racemic) [Example 627, Racemic trans 3-[3-(2-methyl-6H-1,2,3,5,6-tetraaza-as-indacen-1-yl)-cyclopentylamino]-propionitrile], the inhibition constant Ki in assay [1] worked out at 0.00591 µM; in assay [2] it was 0.00136 µM; in assay [3], 0.014 µM; in assay [4], 0.0127 µM.
Consider `COCCNC1CCC(n2c(C)nc3cnc4[nH]ccc4c32)C1` (racemic) [Example 628, Racemic trans (2-methoxy-ethyl)-[3-(2-methyl-6H-1,2,3,5,6-tetraaza-as-indacen-1-yl)-cyclopentyl]-amine], for which the Ki in assay [1] was 0.375 µM; in assay [2] it was 0.0431 µM; in assay [3], 0.798 µM; in assay [4] it was 0.974 µM.
Consider `N#CCC(=O)NC1CCC(n2cnc3cnc4[nH]ccc4c32)C1` (racemic) [Example 629, Racemic trans 2-cyano-N-[3-(6H-1,2,3,5,6-tetraaza-as-indacen-1-yl)-cyclopentyl]-acetamide], for which the Ki amounted to 0.00499 µM in assay [1], 0.00136 µM in assay [2], 0.011 µM in assay [3] and 0.032 µM in assay [4].
